Experimental data as given in patent publication US9279803B2, “Method of identifying patients not suitable for high-dose cyclophosphamide treatment” (The Johns Hopkins University, priority 2006, dated 2016).

System: white blood cell count (WBC)
Settings: preliminary results
Protocol: Additionally, ALDH levels in the target peripheral lymphocytes of high-dose cyclophosphamide treatment may render those cells resistant to cyclophosphamide and can lead to worsened clinical outcome or disease relapse. In a series of multiple sclerosis (MS) patients, blood was analyzed to determine the relative levels of aldehyde dehydrogenease. The banked blood was obtained from MS patients prior to treatment with high-dose cyclophosphamide.

O=P1(N(CCCl)CCCl)NCCCO1 (centres unmarked) [cyclophosphamide]
nadir WBC following high-dose cyclophosphamide treatment (MS patient who did not respond and relapsed, higher ALDH activity in banked blood): 24
WBC reached following high-dose cyclophosphamide treatment (MS patient who responded, much lower ALDH activity in banked blood): 0
